{"source": "patent US20210276960A1", "about": "“INHIBITORS OF TISSUE TRANSGLUTAMINASE 2 (TG2) AND USES THEREOF” (Northwestern University, priority 2020, published 2021)", "key": {"[1]": {"system": "FN45-TG2 interaction", "assay": "Bio-layer interferometry (BLI) of FN45-TG2 binding", "description": "(§1) The 45 kDa fibronectin fragment (FN45) corresponding to the TG2 binding region (Sigma, # F0162) was biotinylated using Biotin (Type A) Fast Conjugation Kit (Abcam, # ab201795). Biotinylated FN45 (10 μg/mL in PBS) was captured on pre-hydrated streptavidin-coated sensors (Pall Forte Bio SAX 18-5117). At each TG2 concentration, the binding kinetics were determined by following this sequence run: baseline (PBS for 30 s), association step (varying concentrations of TG2 in PBS for 120 s), and dissociation step (PBS for 120 s). A new FN45 biosensor was prepared for each run. To analyze the effect of the inhibitor MT4 on the interaction between TG2 and FN, a solution of 20 μg/mL of bio-FN45 was used for capturing FN45 on the streptavidin-coated sensors and the association step was 90 s. For each sensor, the capturing step was measured in real-time in order to assess the stability of the signal and the reproducibility between sensors. The saturation level Rmax was 0.6 (+0.08) for all sensors and no dissociation of the biotinylated FN45 was observed over 60 minutes. […] For the experiments with (TG2+MT4), controls were performed at each MT4 concentration and Rmax values were corrected for non-specific binding and any effects of DMSO on the TG2-FN45 interaction (these effects were below 8%). All BLI experiments were performed at 22° C. Data fitted globally using the BLItz Pro 1.10.31 software package as described(14, 15). Isothermal titration calorimetry (ITC) was performed at 25° C. by titrating 160 μM MT4 into a 10 μM solution of TG2 (Sigma, #T5398)."}, "[2]": {"target": "T1, TG2 (Cavia cutleri, UniProt P08587)", "T1 construct": "purchased Sigma T5398", "T1 sequence (P08587 whole entry)": "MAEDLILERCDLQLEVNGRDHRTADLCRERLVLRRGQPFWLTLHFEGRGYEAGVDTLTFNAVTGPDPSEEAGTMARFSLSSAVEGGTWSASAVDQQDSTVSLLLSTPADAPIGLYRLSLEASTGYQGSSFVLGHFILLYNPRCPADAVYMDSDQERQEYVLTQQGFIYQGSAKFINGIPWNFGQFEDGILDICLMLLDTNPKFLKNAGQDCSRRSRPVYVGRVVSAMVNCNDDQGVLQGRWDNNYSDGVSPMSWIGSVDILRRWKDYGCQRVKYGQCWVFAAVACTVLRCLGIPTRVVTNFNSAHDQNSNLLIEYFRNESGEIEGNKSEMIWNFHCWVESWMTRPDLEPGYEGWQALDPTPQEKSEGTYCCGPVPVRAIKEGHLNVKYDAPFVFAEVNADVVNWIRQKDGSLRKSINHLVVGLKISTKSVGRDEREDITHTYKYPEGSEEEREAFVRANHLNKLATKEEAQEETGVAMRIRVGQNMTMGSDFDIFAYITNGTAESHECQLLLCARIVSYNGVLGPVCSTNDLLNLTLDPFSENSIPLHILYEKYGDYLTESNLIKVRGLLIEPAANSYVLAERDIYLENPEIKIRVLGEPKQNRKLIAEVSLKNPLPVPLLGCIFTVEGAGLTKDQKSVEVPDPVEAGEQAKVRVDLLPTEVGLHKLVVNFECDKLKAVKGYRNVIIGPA", "assay": "Isothermal titration calorimetry (ITC)", "assay_type": "binding", "description": "as §1, with “Data fitted globally using the BLItz Pro 1.10.31 software package as described(14, 15). Isothermal titration calorimetry (ITC) was performed at 25° C. by titrating 160 μM MT4 into a 10 μM solution of TG2 (Sigma, #T5398).” left out"}, "[3]": {"system": "OVCAR5 cells", "assay": "Wound-healing assay, OVCAR5", "assay_type": "cell-based, human", "conditions": "8 μM, 24 hours", "description": "Wound Healing was Performed in 12-Well Plates Coated with 1 μg/Ml FN (Sigma, #1141) overnight at 4° C. OC cells were plated at a density of 2×10^5 cells/well in media containing 2% FBS. Under these conditions cells adhered on substrate, but cell proliferation was minimized. After 16 hours, the cell monolayer was scraped in straight line. Cell debris was removed and serum free media containing selected SMIs or control was replenished. For consistency during image acquisition, a reference point was marked close to the scratch mark and the plate was imaged under phase-contrast microscope at 0, 2, 6, 12 and 24 hours. Wound closure was assessed as the distance between the wound edges, calculated and quantified using the Image Pro-Express software. The percentage of wound closure was evaluated using the formula […]. The rate of migration (μm/h) of OC cells into the wound space was evaluated as the distance difference between wound edges at 0 and 24 h, divided by 24. The experiments were performed in duplicates."}, "[4]": {"system": "SKOV3 cells adhesion onto LP9 monolayers", "assay": "Cell adhesion to LP9 mesothelial monolayers, SKOV3", "assay_type": "cell-based", "conditions": "25 μM", "description": "LP9 mesothelial cells added to clear-bottom 96-well plate at 12,000 cells/well were grown to confluency over 48 hours (h). OC cells were labeled with calcein AM and seeded at a density of 4×10^4 cells to monolayers of mesothelial cells and incubated for 1 h. Non-adherent cells were removed by washing with PBS."}, "[5]": {"system": "SKOV3 cells adhesion to collagen-1", "assay": "SKOV3 adhesion to collagen-1 coated wells", "assay_type": "cell-based", "conditions": "25 μM, collagen-1 20 μg/ml", "description": "FIG. 13. Top SMIs inhibit cell adhesion to FN. A, Effects of top compounds (25 μM) on SKOV3 cells adhesion to FN. B, Dose-dependent effects (1-25 μM) of TG53 on SKOV3 cell adhesion to FN. […] D, Effects of TG53 (25 μM) on SKOV3 cells adhesion to wells coated with collagen-1 (20 μg/ml). E, Effects of TG53 (25 μM) on SKOV3-control or AS-TG2 cells adhesion to FN. Bars represent means+/−SEM of quadruplicate measurements. * denote p<0.05.\nCells labeled with calcein AM (Life Technologies, #L3224) were seeded at a density of 4×10^4 cells in 96-well plates pre-coated with FN (5 μg/mL, Sigma, #F1141), and blocked using 1% BSA (Sigma, #A9647) in PBS in the presence of selected compounds diluted at the specified concentrations, in serum free media. After 45 minutes, unattached cells were washed using PBS containing 1 mM MgCl2(Sigma, #M8266) and adherent cells were quantified in a SpectraMaxGeminiXS fluorescence plate reader (Molecular Devices, Palo Alto, Calif.) at 530 nm wavelength. Experiments were performed inquadruplicate and repeated at least twice."}, "[6]": {"assay": "Tolerability in vivo", "quoted_text": "Three doses were administered 25, 50 and 100 mg/kg to cohorts of 3 mice. A) Average weights, B) average white blood cell counts (WBC), C) average hemoglobin (Hgb) and D) average platelet (Plt) counts measured 1 week after administration at the 3 doses (n=3)."}, "[7]": {"assay": "Pharmacokinetic assessment", "assay_type": "in vivo, mice", "conditions": "for AUC0-∞ / Cl/F / cmax / t1/2 / tmax: 17.46 mg/Kg", "text": "Experiment 2: Pharmacokinetic (PK) assessment. PK studies using the highest safe dose will be conducted on lead compounds that were functionally validated and for which a single dose NOAEL could be established (Aim 3A). These will be carried out by the Sanford Burnham Pharmacology Core (see attached LOS). While ip dosing may not be the preferred route of administration for an eventual cancer drug, these studies using ip dosing will give us data on many PK parameters, including bioavailability, which will be useful in prioritizing and triaging optimized compounds for testing using other routes, e.g., oral. PK parameters will be determined including Cmax (maximum plasma concentration), Tmax (time point of maximum concentration), VdSS (volume of distribution at steady-state), ClE (elimination clearance), AUC (area under the curve) t, (elimination half-life), and oral bioavailability (% F) will be obtained (with the inclusion of an i.v. dosed cohort). […] Our goal will be to identify a compound that has a plasma AUC >5× its cell viability EC50, a t1-2>2 hrs, and low-to-moderate clearance. […] Toxicology and pathology measures will be performed only after anti-tumor activity of lead SMIs will be determined, if compounds are found worthy of detailed study (Expt #3). This approach will maximize use of animals and resources. In brief, peripheral blood counts will be obtained; selected organs and tissues (lung, heart, liver, kidney, colon, bone marrow) will be harvested. Bone marrow cellularity and colony formation assay will be determined."}}}
{"smiles": "Cc1cc(N(C)C)nc(Nc2ccc(NC(=O)Cc3ccccc3)cc2)n1", "note": "[MT-4]", "values": [{"measurement": "FN45 and rTG2 complex formation", "setting": "[1]; FN45 on sensors incubated with MT4, 16 nM to 500 μM, 15, 30, 45 minutes", "value": "not affected"}, {"measurement": "dissociation of FN45-TG2", "setting": "[1]; TG2 pre-incubated with MT4", "value": "faster dissociation"}, {"measurement": "association between FN45 and rTG2", "setting": "[1]; rTG2 incubated with MT4 prior to BLI", "value": "Dose-dependent inhibition"}, {"measurement": "Kd", "setting": "[2]", "value": 5.1, "unit": "µM"}, {"measurement": "change in enthalpy, ΔH", "setting": "[2]; 160 μM MT4 titrated into 10 μM TG2, 25° C.", "value": -20.5, "unit": "kcal/mol"}, {"measurement": "motility (scratch repair)", "setting": "[3]", "value": "inhibited"}, {"measurement": "SKOV3 cell binding to the mesothelial layer", "setting": "[4]", "value": "significantly decreased"}]}
{"smiles": "COc1ccc(Cl)cc1C(=O)Nc1ccc(Nc2nc(C)cc(N(C)C)n2)cc1", "note": "[TG53]", "values": [{"measurement": "adhesion to collagen", "setting": "[5]", "value": "did not inhibit"}, {"measurement": "hematological toxicity", "setting": "[6]; WBC, Hgb, Plt 1 week after administration", "value": "did not induce"}, {"measurement": "tolerated dose", "setting": "[6]; doses 25, 50 and 100 mg/kg", "value": "up to 50 mg/kg"}, {"measurement": "AUC0-∞", "setting": "[7]; IV", "value": 2913, "unit": "ng·h/mL"}, {"measurement": "Cl/F", "setting": "[7]; IV", "value": 0.12, "unit": "L/h"}, {"measurement": "cmax", "setting": "[7]; IV", "value": 4045, "unit": "ng/mL"}, {"measurement": "t1/2", "setting": "[7]; IV", "value": 3.4, "unit": "h"}, {"measurement": "tmax", "setting": "[7]; IV", "value": 0, "unit": "h"}, {"measurement": "AUC0-∞", "setting": "[7]; i.p.", "value": 1212, "unit": "ng·h/mL"}, {"measurement": "Cl/F", "setting": "[7]; i.p.", "value": 0.29, "unit": "L/h"}, {"measurement": "cmax", "setting": "[7]; i.p.", "value": 1313, "unit": "ng/mL"}, {"measurement": "t1/2", "setting": "[7]; i.p.", "value": 19.5, "unit": "h"}, {"measurement": "tmax", "setting": "[7]; i.p.", "value": 0.5, "unit": "h"}, {"measurement": "t/2", "setting": "[7]; ip administration", "value": 19.5, "unit": "h"}, {"measurement": "t/2", "setting": "[7]; iv administration", "value": 3.4, "unit": "h"}]}
